# Results from PubChem BioAssay AID1863 (Southern Research Specialized Biocontainment Screening …, 2009).
# “And” between values parts separate entries of the source, which are not always exact repeats. Equal values may be shown once.
# System: S. Typhimurium PhoP-regulated promoter GFP reporter, 4 h
# Experiment: inhibitors of PhoP regulon expression, primary screen, Salmonella Typhimurium, GFP reporter (AID 1863)
row,Structure (SMILES),IC50
1,O=C1C=C(N2CCOCC2)c2ccccc2C1=O,51.2 µM
2,C[C@H]1c2cccc(O)c2C(O)=C2C(=O)[C@]3(O)C(O)=C(C(N)=O)C(=O)[C@@H](N(C)C)[C@@H]3[C@@H](O)[C@@H]21,6.25 µM
3,OCCN1CCN(Cc2cc(Cl)c3cccnc3c2O)CC1,105 µM
4,Clc1ccc(-c2c[n+](Cc3ccc(Cl)cc3Cl)c3n2CCCCC3)cc1,125 µM
5,CO[C@H]1/C=C/O[C@@]2(C)Oc3c(C)c(O)c4c(O)c(c(C=NN5CCN(C)CC5)c(O)c4c3C2=O)NC(=O)/C(C)=C\C=C\[C@H](C)[C@H](O)[C@@H](C)[C@@H](O)[C@@H](C)[C@H](OC(C)=O)[C@@H]1C,7.42 µM
6,CCCCCc1ccc(OCCC[n+]2ccccc2)c(CCCCC)c1,83.2 µM
7,CC[C@H]1OC(=O)C[C@@H](O)[C@H](C)[C@@H](O[C@@H]2O[C@H](C)C[C@H](N(C)C)[C@H]2O)[C@@H](CC=O)C[C@@H](C)C(=O)C=C[C@]2(C)O[C@H]2[C@@H]1C,18.2 µM
8,CC(C)COc1ccc(Cc2cnc(N)nc2N)cc1,96.7 µM
9,COc1cccc(/C=N\NC(=O)Cn2nnc3ccccc32)c1O,84.3 µM
10,COc1nsnc1NS(=O)(=O)c1ccc(NC(=S)NC(=O)c2cccnc2)cc1,116 µM
11,O=[N+]([O-])c1ccc(O)c2ncccc12,3.48 µM
12,CCn1cc(C(=O)O)c(=O)c2cc(F)c(N3CCN(C(=S)NC(=O)c4ccc(OC)cc4)CC3)cc21,11.3 µM
13,COc1c(N2CCN(C(=S)Nc3ccc(F)cc3)C(C)C2)c(F)cc2c(=O)c(C(=O)O)cn(C3CC3)c12 (stereo not drawn),7.48 µM
14,CC1CCC(C(C)C)C(OC(=O)Cn2c(-c3ccc(Cl)cc3)[n+](C)c3ccccc32)C1 (stereo not drawn),83.7 µM
15,C[C@H]1O[C@@H](n2cc(F)c(=O)[nH]c2=O)[C@H](O)[C@@H]1O,22.8 µM
16,C[C@H]1c2cccc(O)c2C(O)=C2C(=O)C3(O)C(O)=C(C(N)=O)C(=O)[C@@H](N(C)C)[C@@H]3[C@@H](O)[C@@H]21 (stereo partly drawn),6.6 µM
17,Oc1ccc(CN2CCc3ccccc3C2)c2cccnc12,42.8 µM
18,COc1ccccc1CNCCc1ccc(F)cc1,42.6 µM
19,CCCCCCCCCCOC(=O)Cn1c(COc2ccc(C)cc2)[n+](C)c2ccccc21,18.8 µM
20,Cc1c2ccncc2c(C)c2c1[nH]c1ccccc12,26.3 µM
21,NC1CCN(c2c(F)cc3c(=O)c(C(=O)O)cn(C4CC4)c3c2Cl)C1 (stereo not drawn),< 0.23 µM
22,COc1cc([N+](=O)[O-])cc(/C=N\NC(=O)C2COc3ccccc3O2)c1O (stereo not drawn),129 µM
23,O=C1C(SCCO)=C(SCCO)C(=O)c2ccccc21,70.9 µM
24,CCCCCCCNC(=O)C1(CC2CC(c3cccc(Br)c3)=NO2)CCNCC1 (stereo not drawn),45.6 µM
25,Cc1cc2nc3ccc(=[N+](C)C)cc-3sc2cc1N,32.3 µM
26,Cc1cc(SCC(=O)N/N=C/c2ccc(O)c(O)c2O)c(C)cc1Br,41.6 µM

row,Structure (SMILES),IC50
1,NC1=NC[C@H](c2ccccc2)N1CCCCC1CCCCC1,40.6 µM
2,Cc1nc([N+](=O)[O-])c(Br)n1CC(=O)c1ccccc1,146 µM
3,Clc1ccc(Cl)c(OCCCCNCc2ccccc2)c1,123 µM
4,CCN1CCN(C(c2ccc(C(F)(F)F)cc2)c2ccc3cccnc3c2O)CC1 (stereo not drawn),55.1 µM
5,COc1ccc2[nH]c3c(C)c4ccncc4c(C)c3c2c1,31.9 µM
6,O=C(N/N=C/c1cc([N+](=O)[O-])ccc1O)c1ccncc1,58.4 µM
7,CCn1cc(C(=O)NCC(C)C)c(=O)c2cc(F)c(N3CCN(C)CC3)cc21,38.2 µM
8,CC(C(=O)c1ccc(-c2ccccc2)cc1)[n+]1cccc(NC(=O)c2ccccc2)c1 (stereo not drawn),78.3 µM
9,O=[N+]([O-])c1cc(CN2CCCC2)c2cccnc2c1O,71.5 µM
10,CNC(=S)N1CCN(c2c(F)cc3c(=O)c(C(=O)O)cn(C4CC4)c3c2OC)CC1C (stereo not drawn),17.6 µM
11,CN1CCN(c2c(F)cc3c(=O)c(C(=O)O)cn4c3c2SCC4)CC1,4.43 µM and 4.66 µM
12,CCn1cc(C(=O)O)c(=O)c2cc(F)c(N3CCN(C(=S)NC(=O)c4c(OC)cccc4OC)CC3)cc21,30 µM
13,OC(c1cc(C(F)(F)F)nc2c(Cl)cc(Cl)cc12)C1CCCCN1 (stereo not drawn),101 µM
14,CN(C)c1ccc(O)c2c1CC1CC3[C@@H](N(C)C)C(=O)C(C(N)=O)=C(O)[C@]3(O)C(=O)C1=C2O (stereo partly drawn),9.56 µM
15,O=C(N/N=C/c1sc2ccccc2c1O)c1cccc2ccccc12,42.4 µM
16,CNC[C@H](CC1CCCCC1)NC[C@H](Cc1ccccc1)NCCC12CC3CC(CC(C3)C1)C2,18.1 µM
17,CC(=O)N1CCN(c2cc3c(cc2F)c(=O)c(C(=O)O)cn3C2CC2)CC1,16.3 µM
18,Nc1[nH]c(=O)ncc1F,29.2 µM
19,CCn1cc(C(=O)O)c(=O)c2cc(F)c(N3CCN(C(=S)Nc4ccc(OC)cc4)CC3)cc21,6.05 µM
20,Oc1ccc(Cl)cc1Cc1cc(Cl)ccc1O,36.6 µM
21,CCCCCCCCCCCCCCCC[N+](C)(C)C,34.3 µM
22,Cc1ccc(C(=O)Sc2cccccc2=O)cc1,21.4 µM
23,O=C(CN1CCCC1)N/N=C/c1c(O)ccc2ccccc12,56.4 µM
24,OC(c1cc(-c2ccc(C(F)(F)F)cc2)nc(C(F)(F)F)c1)C1CCCCN1 (stereo not drawn),38.1 µM
25,COc1c(N2CCN[C@H](C)C2)c(F)cc2c(=O)c(C(=O)O)cn(C3CC3)c12,0.36 µM
26,C=C1c2c(Cl)ccc(O)c2C(O)=C2C(=O)[C@]3(O)C(O)=C(C(N)=O)C(=O)[C@@H](N(C)C)[C@@H]3[C@@H](O)C12 (stereo partly drawn),2.22 µM

row,Structure (SMILES),IC50
1,CC(C(=O)NC1CCS(=O)(=O)C1)N1C(=O)/C(=C/c2ccc(Cl)cc2)SC1=S (stereo not drawn),39.9 µM
2,Cc1ccc(Nc2c3c(nc4ccccc24)CCC3)cc1,137 µM
3,C=CCNc1ncnc2c1[nH]c1ccc(Cl)cc12,137 µM
4,NC(N)=N/N=C/c1ccc(OCc2ccc(Cl)cc2)cc1,39.4 µM
5,CC1CCC(C(C)C)C(OC(=O)Cn2c(COc3ccccc3)[n+](C)c3ccccc32)C1 (stereo not drawn),72.3 µM
6,COc1ccc(/C=N/Nc2cc(C)nc3c(C)cccc23)cc1,80.6 µM
7,CCC(C)N1CCC2(CC1)N=c1c(c3c4c5c(C)c(O)c3c(O)c1=NC(=O)C(C)=CC=C[C@H](C)[C@H](O)[C@@H](C)[C@@H](O)[C@@H](C)[C@H](OC(C)=O)[C@H](C)[C@@H](OC)C=CO[C@@](C)(O5)C4=O)N2 (stereo partly drawn),2.72 µM
8,Cc1ccc(S(=O)(=O)/N=C2/C=C(Sc3ncn[nH]3)C(=O)c3ccccc32)cc1,53.8 µM
9,Oc1ccc(CNc2ccccc2F)c2cccnc12,96.5 µM
10,CC[C@@H](C)[C@H](CNC)NC[C@@H](Cc1cccc2ccccc12)NCCc1cccc(C(F)(F)F)c1,33.2 µM
11,CCCCCCCCCCOC(=O)Cn1c(COc2ccccc2OC)[n+](C)c2ccccc21,28.6 µM
12,Oc1c(C(Nc2ccccn2)c2ccccn2)ccc2cccnc12 (stereo not drawn),91.6 µM
13,CCCOc1ccc(C(=O)C(CCC(CNCC)C(=O)c2ccc(OCCC)cc2)CNCC)cc1 (stereo not drawn),94.6 µM
14,CN(C)c1ccc(/C=C/c2ccc3c4ccccc4ccc3[n+]2-c2ccccc2)cc1,21 µM
15,C#CCOCCOCCOCCNc1nc(N2CCN(C(=O)CCCCCCCCCCNC(=O)[C@H](CCCCN)n3cc(C[C@@H](C)CC)nn3)CC2)nc(N2CCN(C(=O)CCCCCCCCCCNC(=O)[C@H](CCCN=C(N)N)n3cc(C[C@@H](C)CC)nn3)CC2)n1,80.9 µM
16,CCN1/C(=C/C(C)=C/c2sc3ccccc3[n+]2CC)Sc2ccccc21,17.7 µM
17,Oc1c(Br)cc(Br)cc1C=NCc1ccccc1,102 µM
18,OCCNCc1c(OCc2ccc(Cl)cc2)ccc2ccccc12,127 µM
19,COc1c(N2CCNC(C)C2)c(F)cc2c(=O)c(C(=O)O)cn(C3CC3)c12 (stereo not drawn),0.58 µM
20,CC(=O)NC(c1cccc([N+](=O)[O-])c1)c1ccc2cccnc2c1O (stereo not drawn),105 µM
21,O=C(/C=C/c1ccccc1Cl)c1ccccc(=O)c1O,40.1 µM
22,O=C1C=C(O)c2c(O)cc(O)c(O)c2C1=O,73.2 µM
23,Clc1ccc(OCCCNCc2ccccc2)c(Br)c1,68.7 µM
24,COC(=O)c1c(NC(=O)c2ccc([N+](=O)[O-])o2)sc2c1CCN(C(C)C)C2,56.3 µM
25,CCOC(=O)C1=Nc2ccccc2C1=[N+]=[N-],32.4 µM
26,Cc1ccc(Nc2cc(C)c3c(O)cccc3n2)cc1C,75.3 µM

row,Structure (SMILES),IC50
1,CCCCCCCCCCOC(=O)C[N+](C)(C)C/C=C(/C)Cl,51.1 µM
2,CCn1cc(C(=O)O)c(=O)c2cc(F)c(N3CCN(C)CC3)cc21,1 µM
3,NC1=NC[C@H](Cc2ccc(O)cc2)N1CCC12CC3CC(CC(C3)C1)C2,75.3 µM
4,Oc1ccc(CN2CCCc3ccccc32)c2cccnc12,68.5 µM
5,Cc1onc(-c2ccccc2)c1C(=O)NC(=S)NNC(=O)c1ccc(O)cc1O,111 µM
6,O=C(c1ccccc1)c1c2c(cc3sc4ccccc4[n+]13)-c1cccc3cccc-2c13,79.6 µM
7,Cc1ccc(C(c2cc(Cl)c3cccnc3c2O)N2CCN(C)CC2)cc1 (stereo not drawn),55.5 µM
8,CN(C)c1ccc(/C=C/c2ccc3ccccc3[n+]2C)cc1,18.7 µM
9,COC12C(COC(N)=O)C3=C(C(=O)C(C)=C(N)C3=O)N1CC1C2N1C (stereo not drawn),16.3 µM
10,CCCCCCCCCCCCCCCCn1cc[n+](C)c1,17.1 µM
11,CN1/C(=C\C=C\C2=[N+](C)c3ccc4ccccc4c3C2(C)C)C(C)(C)c2ccccc21,10.2 µM
12,O=C(O)CSc1cc(NS(=O)(=O)c2cccc([N+](=O)[O-])c2)c2ccccc2c1O,133 µM
13,COC(=O)C(C)NC(=S)N1CCN(c2c(F)cc3c(=O)c(C(=O)O)cn(C4CC4)c3c2OC)CC1C (stereo not drawn),75.4 µM
14,COc1ccccc1CNCC(O)Cn1c2ccccc2c2ccccc21 (stereo not drawn),104 µM
15,O=C(N/N=C/c1cc(O)ccc1Br)c1cccnc1,61.8 µM
16,Clc1ccc(CNCc2cccs2)cc1Cl,73.3 µM
17,Cn1cnc([N+](=O)[O-])c1Oc1cccc(O)c1,113 µM
18,COc1ccc(CNC[C@@H](CCCCN(C)Cc2ccc(OC)cc2)N2C[C@H](c3ccccc3)N(CCc3ccc(Cl)c(Cl)c3)C(=O)C2=O)cc1,76.3 µM
19,O=C1c2ccccc2NC(c2ccc(-c3ccc(Br)cc3)o2)N1O (stereo not drawn),106 µM
20,CCCCCCCCCn1c2c(c(=N)c3c1CCC3)CCCC2,30.9 µM
21,Cc1cc(C)c2ccc(N)nc2c1O,69.4 µM
22,Cc1ccc(Nc2nc(NCc3ccco3)c3ccccc3n2)cc1,44.1 µM
23,CC[C@H]1OC(=O)[C@H](C)[C@@H](O[C@H]2C[C@@](C)(OC)[C@@H](O)[C@H](C)O2)[C@H](C)[C@@H](O[C@@H]2O[C@H](C)C[C@H](N(C)C)[C@H]2O)[C@](C)(O)C[C@@H](C)[C@@H]2N[C@@H](COCCOC)O[C@H]([C@H]2C)[C@]1(C)O,33.1 µM
24,CCN1CCN(C(c2cccnc2)c2cc(Cl)c3cccnc3c2O)CC1 (stereo not drawn),78.5 µM
25,NC1CCN(c2nc3c(cc2F)c(=O)c(C(=O)O)cn3-c2ccc(F)cc2F)C1 (stereo not drawn),0.49 µM
